Tests used:
[1] = tested on: patients with stable coronary disease; conditions: LoDoCo, 0.5 mg once daily, 532 patients, not placebo-controlled; cited from earlier work
[2] = tested on: white blood cell count; experiment: COLCOT white blood cell counts (total, lymphocytes, neutrophils); type: in vivo, human; conditions: for Total white blood cell count, geometric mean / Total white blood cell count, Adjusted GM percent change: N=992
Description: (§1) Additional prespecified exploratory end points included the change from baseline to 6 months in the high-sensitivity C-reactive protein level and the change from baseline to 12 months in the white-cell count. The C-reactive protein biomarker substudy was implemented after a protocol amendment and was optional for sites and for patients; 34 sites chose to participate in this substudy.
(§2) The analysis of the primary end point was repeated in the per-protocol population (i.e., patients without major protocol deviations). Secondary and exploratory end points expressed as time to event were analyzed similarly. The changes from baseline to follow-up were analyzed with the use of an analysis of covariance model with adjustment for baseline value, and estimates of treatment effect are presented with 95% confidence intervals.
(§3) In Table 8, the placebo-adjusted geometric mean percent change was obtained by exponentiating the adjusted mean difference between groups from the analysis of covariance model (based on log-transformed data), then subtracting 1 and multiplying by 100.
(§4) In addition, the C-reactive protein biomarker sub-study was implemented following a protocol amendment and was optional for sites and for patients; 34 sites accepted to participate in this substudy. There were 213 and 208 patients who provided blood samples at baseline and 6 months, respectively. Paired baseline and 6-month hs-CRP values were available in 207 patients. Clinically available white blood cell counts were obtained from 2598 patients at baseline and 1998 patients at 12 months, and paired baseline and 12-month values were available in 1972 patients. Statistical analysis was conducted on the patients who provided both baseline and follow-up data and as these were exploratory analyses, no missing data was imputed.
Information about white-cell counts at baseline and at the 12-month follow-up were also available for a relatively small subgroup of 1972 patients. The adjusted geometric mean percent changes from baseline to 1 year in the total white-cell count were −18.8% in the colchicine group and −19.0% in the placebo group, with no significant difference between groups (0.3% percentage points; 95% CI, −2.2 to 2.7).

[3] = tested on: high-sensitivity C-reactive protein; experiment: COLCOT biomarker substudy: high-sensitivity C-reactive protein; type: in vivo, human
Description: as §1, §2
High-sensitivity C-reactive protein was measured in a subgroup of only 207 patients at the time of randomization and 6 months later, and the median concentration at trial entry was 4.28 mg per liter. […] The adjusted geometric mean percent changes in the high-sensitivity C-reactive protein level at 6 months after myocardial infarction were −70.0% in the colchicine group and −66.6% in the placebo group, and the placebo-adjusted geometric mean percent change was −10.1% percentage points in the colchicine group (95% CI, −28.6 to 13.4) (Table 8).
as §3, §4

[4] = baseline to 12 months, colchicine vs placebo

## COc1cc2c(c(OC)c1OC)-c1ccc(OC)c(=O)cc1[C@@H](NC(C)=O)CC2 [Colchicine, colchicine]
[1]
  cardiovascular events versus no colchicine (in words): fewer cardiovascular events than those not receiving colchicine
[2]; at 12 months
  Circulating lymphocytes, geometric mean: 1.83 10^3/μL
  Circulating neutrophils, geometric mean: 3.95 10^3/μL
  Total white blood cell count, geometric mean: 6.95 10^3/μL
[2]; at Randomization (baseline)
  Circulating lymphocytes, geometric mean: 1.79 10^3/μL
  Circulating neutrophils, geometric mean: 5.45 10^3/μL
  Total white blood cell count, geometric mean: 8.54 10^3/μL
[2]; baseline to 12 months
  Circulating lymphocytes, Adjusted GM percent change: 1.80%
  Circulating neutrophils, Adjusted GM percent change: −27.63%
  Total white blood cell count, Adjusted GM percent change: −18.81%
[2]; baseline to 12 months, listed as colchicine
  Total white blood cell count, Adjusted GM percent change: −18.8%
[2]; [4]
  Circulating lymphocytes, Placebo-adjusted GM percent change: 1.10%
  Circulating neutrophils, Placebo-adjusted GM percent change: 0.45%
  Total white blood cell count, Placebo-adjusted GM percent change: 0.26%
[2]; baseline to 12 months, colchicine vs placebo, listed as colchicine
  Total white blood cell count, Placebo-adjusted GM percent change: 0.3%
[3]; at 6 months, N=99
  Hs-C reactive protein, geometric mean: 1.37 mg/L
[3]; at Randomization (baseline), N=99
  Hs-C reactive protein, geometric mean: 4.27 mg/L
[3]; baseline to 6 months, N=99
  Hs-C reactive protein, Adjusted GM percent change: −70.0%
[3]; baseline to 6 months, colchicine vs placebo
  Hs-C reactive protein, Placebo-adjusted GM percent change: −10.1%
[3]; over the first 6 months after myocardial infarction, in both trial groups, difference between groups not significant
  reduction in the C-reactive protein level: > 65%
